In BindingDB's records for PubMed 29032032 (Quaid-I-Azam University, 2017):

The molecules below were run against Maltase-glucoamylase (Homo sapiens, UniProt O43451) (assay: Inhibition of alpha-glucosidase (unknown origin)).
Maltase-glucoamylase, sequence (O43451 whole entry): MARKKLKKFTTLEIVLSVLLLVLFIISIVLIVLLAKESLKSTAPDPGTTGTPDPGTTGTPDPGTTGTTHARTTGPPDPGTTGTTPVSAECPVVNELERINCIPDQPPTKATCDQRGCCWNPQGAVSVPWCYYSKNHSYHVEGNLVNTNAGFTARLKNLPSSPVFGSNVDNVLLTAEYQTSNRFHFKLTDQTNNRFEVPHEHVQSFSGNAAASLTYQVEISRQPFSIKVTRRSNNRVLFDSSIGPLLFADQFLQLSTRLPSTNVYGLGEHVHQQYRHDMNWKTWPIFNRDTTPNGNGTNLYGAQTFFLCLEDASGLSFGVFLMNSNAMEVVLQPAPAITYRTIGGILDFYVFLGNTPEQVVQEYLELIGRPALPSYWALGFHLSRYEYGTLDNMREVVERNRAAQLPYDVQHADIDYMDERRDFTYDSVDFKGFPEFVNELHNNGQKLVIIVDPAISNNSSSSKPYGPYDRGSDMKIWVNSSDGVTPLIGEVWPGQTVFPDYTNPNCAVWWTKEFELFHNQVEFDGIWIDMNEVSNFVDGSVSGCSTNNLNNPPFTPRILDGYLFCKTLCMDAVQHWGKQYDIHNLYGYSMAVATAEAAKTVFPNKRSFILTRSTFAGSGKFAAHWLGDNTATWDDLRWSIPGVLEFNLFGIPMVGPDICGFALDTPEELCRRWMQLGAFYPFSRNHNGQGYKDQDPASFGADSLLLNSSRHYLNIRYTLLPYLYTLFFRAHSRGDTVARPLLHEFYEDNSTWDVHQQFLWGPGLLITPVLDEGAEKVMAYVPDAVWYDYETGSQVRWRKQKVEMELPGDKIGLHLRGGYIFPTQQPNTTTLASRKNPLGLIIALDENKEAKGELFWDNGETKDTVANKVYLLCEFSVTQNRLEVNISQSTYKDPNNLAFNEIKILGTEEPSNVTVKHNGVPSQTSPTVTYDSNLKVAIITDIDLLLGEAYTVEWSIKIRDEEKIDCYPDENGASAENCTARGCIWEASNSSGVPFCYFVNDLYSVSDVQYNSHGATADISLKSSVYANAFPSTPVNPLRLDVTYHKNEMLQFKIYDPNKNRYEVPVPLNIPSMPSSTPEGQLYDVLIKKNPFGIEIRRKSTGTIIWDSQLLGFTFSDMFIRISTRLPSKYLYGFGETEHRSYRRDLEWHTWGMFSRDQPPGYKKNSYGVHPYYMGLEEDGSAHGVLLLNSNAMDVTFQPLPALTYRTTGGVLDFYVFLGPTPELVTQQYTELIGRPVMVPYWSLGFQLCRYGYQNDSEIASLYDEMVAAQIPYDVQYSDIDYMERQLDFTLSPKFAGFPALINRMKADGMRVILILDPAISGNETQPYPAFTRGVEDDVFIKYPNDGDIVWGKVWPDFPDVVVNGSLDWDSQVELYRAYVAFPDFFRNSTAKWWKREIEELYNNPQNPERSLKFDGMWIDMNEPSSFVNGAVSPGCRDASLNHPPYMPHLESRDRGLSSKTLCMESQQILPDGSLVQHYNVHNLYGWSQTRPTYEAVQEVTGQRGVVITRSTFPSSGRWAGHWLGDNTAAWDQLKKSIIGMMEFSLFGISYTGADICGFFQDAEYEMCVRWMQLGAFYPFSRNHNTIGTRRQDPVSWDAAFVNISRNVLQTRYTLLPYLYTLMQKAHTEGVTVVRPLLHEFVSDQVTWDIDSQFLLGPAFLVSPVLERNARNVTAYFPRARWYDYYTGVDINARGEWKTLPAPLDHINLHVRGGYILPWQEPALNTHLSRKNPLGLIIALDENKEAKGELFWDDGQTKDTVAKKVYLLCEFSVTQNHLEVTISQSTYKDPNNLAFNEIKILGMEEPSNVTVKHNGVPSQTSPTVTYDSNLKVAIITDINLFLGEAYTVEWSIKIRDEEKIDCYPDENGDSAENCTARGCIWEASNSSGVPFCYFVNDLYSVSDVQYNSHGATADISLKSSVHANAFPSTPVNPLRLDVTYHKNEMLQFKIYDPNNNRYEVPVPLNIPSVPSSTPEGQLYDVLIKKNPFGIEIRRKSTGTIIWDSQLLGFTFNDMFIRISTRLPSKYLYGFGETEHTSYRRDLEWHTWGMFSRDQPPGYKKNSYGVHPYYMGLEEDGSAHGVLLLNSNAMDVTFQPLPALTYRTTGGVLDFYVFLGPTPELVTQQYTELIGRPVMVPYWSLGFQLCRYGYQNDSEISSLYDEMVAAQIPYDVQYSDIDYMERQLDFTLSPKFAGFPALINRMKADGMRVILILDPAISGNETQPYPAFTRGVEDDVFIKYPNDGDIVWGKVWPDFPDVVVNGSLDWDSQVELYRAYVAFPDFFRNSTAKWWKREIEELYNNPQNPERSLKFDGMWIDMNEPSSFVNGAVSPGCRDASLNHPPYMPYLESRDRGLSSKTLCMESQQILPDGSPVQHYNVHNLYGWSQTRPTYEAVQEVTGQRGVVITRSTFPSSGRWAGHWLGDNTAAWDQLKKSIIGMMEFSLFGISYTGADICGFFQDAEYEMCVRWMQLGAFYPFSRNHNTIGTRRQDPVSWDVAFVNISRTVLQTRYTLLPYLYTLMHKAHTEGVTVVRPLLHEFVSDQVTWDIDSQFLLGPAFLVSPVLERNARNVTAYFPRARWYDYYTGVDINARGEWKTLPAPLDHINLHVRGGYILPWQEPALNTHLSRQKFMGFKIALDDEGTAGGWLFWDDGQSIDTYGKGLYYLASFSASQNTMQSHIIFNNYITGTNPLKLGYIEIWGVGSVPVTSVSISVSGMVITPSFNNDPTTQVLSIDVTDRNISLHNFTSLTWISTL

SMILES	IC50
O=c1oc2ccc(Cl)cc2c(O)c1C(c1cccc([N+](=O)[O-])c1)c1c(O)c2cc(Cl)ccc2oc1=O	27.1 µM
COc1ccc(C(c2c(O)c3cc(Cl)ccc3oc2=O)c2c(O)c3cc(Cl)ccc3oc2=O)cc1O	113 µM
COc1cc(C(c2c(O)c3cc(Cl)ccc3oc2=O)c2c(O)c3cc(Cl)ccc3oc2=O)cc(OC)c1OC	128 µM
COc1cc(C(c2c(O)c3cc(Cl)ccc3oc2=O)c2c(O)c3cc(Cl)ccc3oc2=O)ccc1O	83.6 µM
COc1ccc(C(c2c(O)c3cc(C)ccc3oc2=O)c2c(O)c3cc(C)ccc3oc2=O)cc1 [acs.jmedchem.1c00409_ST.500]	107 µM
O=c1oc2ccc(Cl)cc2c(O)c1C(c1cccc(O)c1)c1c(O)c2cc(Cl)ccc2oc1=O	84.1 µM
CCOc1cc(C(c2c(O)c3cc(C)ccc3oc2=O)c2c(O)c3cc(C)ccc3oc2=O)ccc1O	221 µM
COc1cc(C(c2c(O)c3cc(C)ccc3oc2=O)c2c(O)c3cc(C)ccc3oc2=O)cc(OC)c1OC	386 µM
O=c1oc2ccc(Cl)cc2c(O)c1C(c1ccc(Cl)cc1Cl)c1c(O)c2cc(Cl)ccc2oc1=O	16.5 µM
CCOc1cc(C(c2c(O)c3cc(Cl)ccc3oc2=O)c2c(O)c3cc(Cl)ccc3oc2=O)ccc1O	57.1 µM
COc1ccc(C(c2c(O)c3cc(Cl)ccc3oc2=O)c2c(O)c3cc(Cl)ccc3oc2=O)cc1OC	91.4 µM

The molecules below were run against Alpha-glucosidase (Saccharomyces cerevisiae) (assay: Inhibition of Saccharomyces cerevisiae alpha-glucosidase using pNPG as substrate incubated for 30 mins by microplate reader analysis).

SMILES	IC50
O=c1ccc2ccc(Oc3cc4cc(O)c(O)cc4oc3=O)cc2o1 [6,7-dihydroxy-3,7'-dicoumaryl ether]	0.05 µM
COc1cc2cc(Oc3ccc4ccc(=O)oc4c3)c(=O)oc2cc1O [Daphnoretin]	0.086 µM
COc1cc2c(O)c(Oc3cc(O[C@@H]4O[C@H](CO)[C@@H](O)[C@H](O)[C@H]4O[C@@H]4O[C@H](CO)[C@@H](O)[C@H](O)[C@H]4O)c4ccc(=O)oc4c3)c(=O)oc2cc1O	0.231 µM
